Results: US7482379B2, “Propenoyl hydrazides” (priority 2004, dated 2009)
Peptide text beside a SMILES is read from it. * marks the point of attachment. AFC = O=c1cc(C(F)(F)F)c2ccc(N*)cc2o1

Columns and labels:
Caspase-7 = molecular target: T1, Caspase-7 (Homo sapiens, UniProt P55210); assay: Caspase-7 progress curve inhibition assay; conditions: second-order rate constant; Ac-DEVD-AMC substrate; Pipes buffer pH 7.2
T1 sequence (P55210 24-198 limits assumed): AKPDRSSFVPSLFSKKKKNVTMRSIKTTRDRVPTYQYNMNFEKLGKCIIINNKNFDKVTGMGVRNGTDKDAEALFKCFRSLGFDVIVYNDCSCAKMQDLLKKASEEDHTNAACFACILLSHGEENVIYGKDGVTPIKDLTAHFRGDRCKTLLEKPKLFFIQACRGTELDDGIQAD
T1 sequence (P55210 207-303 limits assumed): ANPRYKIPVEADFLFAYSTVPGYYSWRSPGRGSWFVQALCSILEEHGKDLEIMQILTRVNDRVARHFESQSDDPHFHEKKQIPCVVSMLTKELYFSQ

Caspase-8 = Caspase-8 (Homo sapiens, UniProt Q14790); assay: Caspase-8 progress curve inhibition assay; conditions: second-order rate constant; Ac-DEVD-AMC substrate; Pipes buffer pH 7.2
Sequence of Caspase-8 (Q14790 217-374 limits assumed): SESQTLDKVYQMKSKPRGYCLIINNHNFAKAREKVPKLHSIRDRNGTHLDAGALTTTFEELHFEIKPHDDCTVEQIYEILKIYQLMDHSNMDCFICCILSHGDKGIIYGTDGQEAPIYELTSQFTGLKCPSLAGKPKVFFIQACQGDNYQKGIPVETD
Sequence of Caspase-8 (Q14790 385-479 limits assumed): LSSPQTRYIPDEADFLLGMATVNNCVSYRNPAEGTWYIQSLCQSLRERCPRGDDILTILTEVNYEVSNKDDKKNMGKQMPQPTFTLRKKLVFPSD

Caspase-6 = molecular target: T2, Caspase-6 (Homo sapiens, UniProt P55212); assay: Caspase-6 progress curve inhibition assay; conditions: second-order rate constant; Ac-DEVD-AMC substrate; Pipes buffer pH 7.2
T2 sequence (P55212 24-179 limits assumed): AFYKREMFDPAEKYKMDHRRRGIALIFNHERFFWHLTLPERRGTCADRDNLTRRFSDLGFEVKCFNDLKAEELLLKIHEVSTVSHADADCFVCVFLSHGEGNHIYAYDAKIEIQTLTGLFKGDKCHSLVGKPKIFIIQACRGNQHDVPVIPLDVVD
T2 sequence (P55212 194-293 limits assumed): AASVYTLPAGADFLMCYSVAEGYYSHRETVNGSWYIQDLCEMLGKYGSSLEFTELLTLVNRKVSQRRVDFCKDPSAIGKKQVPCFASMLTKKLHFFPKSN

Caspase-9 = molecular target: T3, Caspase-9 (Homo sapiens, UniProt P55211); assay: Caspase-9 progress curve inhibition assay; conditions: for k2 Caspase-9: second-order rate constant, Ac-LEHD-AFC substrate, Hepes buffer pH 7.0 with 0.7 M sodium citrate
T3 sequence (P55211 1-315 limits assumed): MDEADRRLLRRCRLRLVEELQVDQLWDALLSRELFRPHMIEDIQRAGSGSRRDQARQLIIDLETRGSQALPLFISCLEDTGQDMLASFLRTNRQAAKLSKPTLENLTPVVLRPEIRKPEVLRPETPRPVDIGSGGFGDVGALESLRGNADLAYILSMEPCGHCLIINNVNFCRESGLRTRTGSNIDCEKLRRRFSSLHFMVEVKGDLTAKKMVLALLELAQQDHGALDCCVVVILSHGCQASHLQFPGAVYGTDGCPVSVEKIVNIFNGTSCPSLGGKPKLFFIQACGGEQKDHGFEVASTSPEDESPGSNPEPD
T3 sequence (P55211 331-416 limits assumed): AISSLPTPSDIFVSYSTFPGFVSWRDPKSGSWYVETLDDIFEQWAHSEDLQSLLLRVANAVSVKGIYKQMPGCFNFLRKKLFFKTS

Caspase-3 = molecular target: T4, Caspase-3 (Homo sapiens, UniProt P42574); assay: Caspase-3 progress curve inhibition assay; conditions: for k2 Caspase-3: second-order rate constant, Ac-DEVD-AMC substrate, Pipes buffer pH 7.2
T4 sequence (P42574 29-175 limits assumed): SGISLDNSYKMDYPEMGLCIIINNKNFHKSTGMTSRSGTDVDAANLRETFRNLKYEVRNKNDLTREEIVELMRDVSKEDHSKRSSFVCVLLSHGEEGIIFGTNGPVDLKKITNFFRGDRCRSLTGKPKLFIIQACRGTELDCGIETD
T4 sequence (P42574 176-277 limits assumed): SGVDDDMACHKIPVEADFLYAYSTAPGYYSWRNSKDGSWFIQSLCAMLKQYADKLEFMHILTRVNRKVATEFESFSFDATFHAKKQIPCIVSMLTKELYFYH

Caspase-10 = molecular target: T5, Caspase-10 (Homo sapiens, UniProt Q92851); assay: Caspase-10 progress curve inhibition assay; conditions: second-order rate constant; Ac-DEVD-AMC substrate; Hepes/PEG buffer pH 7.0
T5 sequence (Q92851 220-415 limits assumed): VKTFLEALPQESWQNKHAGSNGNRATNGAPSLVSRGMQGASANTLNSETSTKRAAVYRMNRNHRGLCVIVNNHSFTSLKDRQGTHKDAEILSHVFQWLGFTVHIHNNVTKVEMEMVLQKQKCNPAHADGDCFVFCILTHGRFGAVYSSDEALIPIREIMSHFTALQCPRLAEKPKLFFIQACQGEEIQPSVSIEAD
T5 sequence (Q92851 416-521 limits assumed): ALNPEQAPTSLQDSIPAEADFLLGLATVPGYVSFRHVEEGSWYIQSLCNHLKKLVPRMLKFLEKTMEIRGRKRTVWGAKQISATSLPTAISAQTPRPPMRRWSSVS

Caspase-2 = molecular target: T6, Caspase-2 (Homo sapiens, UniProt P42575); assay: Caspase-2 progress curve inhibition assay; conditions: second-order rate constant; Cbz-VDVAD-AFC substrate; Pipes buffer pH 7.2
T6 sequence (P42575 170-333 limits assumed): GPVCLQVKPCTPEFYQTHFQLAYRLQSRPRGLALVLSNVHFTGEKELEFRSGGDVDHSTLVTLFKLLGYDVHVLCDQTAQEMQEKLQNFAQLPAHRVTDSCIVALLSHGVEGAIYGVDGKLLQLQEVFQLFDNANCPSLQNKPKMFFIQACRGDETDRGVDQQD
T6 sequence (P42575 348-452 limits assumed): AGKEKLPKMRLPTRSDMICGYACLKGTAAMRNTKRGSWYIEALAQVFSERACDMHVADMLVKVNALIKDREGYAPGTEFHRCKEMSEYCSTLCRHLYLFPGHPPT

SMILES: CC(C)[C@H](NC(=O)[C@H](CCC(=O)O)NC(=O)[C@H](CC(=O)O)NC(=O)OCc1ccccc1)C(=O)NN(CC(=O)O)C(=O)C=CC(=O)N(Cc1cccc2ccccc12)Cc1cccc2ccccc12
- k2 Caspase-7 (Caspase-7): 875,000 M^−1s^−1
- k2 Caspase-8 (Caspase-8): 9,460 M^−1s^−1
- k2 Caspase-6 (Caspase-6): 29,700 M^−1s^−1
- k2 Caspase-9 (Caspase-9): 150 M⁻¹ s⁻¹
- k2 Caspase-3 (Caspase-3): 5,620,000 M^−1s^−1
- k2 Caspase-10 (Caspase-10): 32,500 M^−1s^−1
- k2 Caspase-2 (Caspase-2): 410 M⁻¹ s⁻¹

SMILES: CC(C)[C@H](NC(=O)[C@H](CCC(=O)O)NC(=O)[C@H](CC(=O)O)NC(=O)OCc1ccccc1)C(=O)NN(CC(=O)O)C(=O)/C=C/C(=O)N(Cc1ccccc1)Cc1ccccc1 (relative stereo) [Cbz-Asp-Glu-Val-AAsp-CH═CH—CON(CH2Ph)2, N^2—(N-Benzyloxycarbonylaspartylglutamylvalyl)-N^1-carboxymethyl-N^1-trans-(3-dibenzylcarbamoylpropenoyl)hydrazine]
- k2 Caspase-7 (Caspase-7): 359,000 M^−1s^−1
- k2 Caspase-8 (Caspase-8): 8,600 M^−1s^−1
- k2 Caspase-6 (Caspase-6): 5,100 M^−1s^−1
- k2 Caspase-9 (Caspase-9): 450 M⁻¹ s⁻¹
- selectivity: inhibits caspase-3 more potently than caspase-6 (Caspase-3; ratio of k2 caspase-3 to caspase-6): 588 fold
- selectivity: inhibits caspase-3 more potently than caspase-8 (Caspase-3; ratio of k2 caspase-3 to caspase-8): 348 fold
- k2 Caspase-3 (Caspase-3; listed as Cbz-Asp-Glu-Val-AAsp-CH═CH—CON(Bzl)2): 3,000,000 M^−1s^−1
- k2 Caspase-10 (Caspase-10): 6,300 M^−1s^−1
- k2 Caspase-2 (Caspase-2): 110 M⁻¹ s⁻¹

SMILES: CC[C@H](C)[C@H](NC(=O)OCc1ccccc1)C(=O)N[C@@H](CCC(=O)O)C(=O)N[C@H](C(=O)NN(CC(=O)O)C(=O)/C=C/C(=O)OCc1ccccc1)[C@@H](C)O (relative stereo) [Cbz-Ile-Glu-Thr-AAsp-CH═CH—COOCH2Ph, N^1-trans-(3-Benzyloxycarbonylpropenoyl)-N^2—(N-benzyloxycarbonylisoleucylglutamylthreonyl)-N^1-carboxylmethylhydrazine]
- k2 Caspase-7 (Caspase-7): 660 M⁻¹ s⁻¹
- k2 Caspase-8 (Caspase-8): 148,400 M^−1s^−1
- k2 Caspase-6 (Caspase-6): 23,350 M^−1s^−1
- k2 Caspase-3 (Caspase-3): 2,300 M^−1s^−1
- k2 Caspase-10 (Caspase-10): 15,200 M^−1s^−1
- k2 Caspase-2 (Caspase-2): 110 M⁻¹ s⁻¹

SMILES: CCOC(=O)/C=C/C(=O)N(CC(=O)O)NC(=O)[C@@H](NC(=O)[C@H](CCC(=O)O)NC(=O)[C@@H](NC(=O)OCc1ccccc1)[C@@H](C)CC)[C@@H](C)O (relative stereo) [Cbz-Ile-Glu-Thr-AAsp-CH═CH—COOEt, N^2—(N-Benzyloxycarbonylisoleucylglutamylthreonyl)-N^1-carboxymethyl-N^1-trans-(3-ethoxycarbonylpropenoyl)hydrazine]
- k2 Caspase-7 (Caspase-7): 530 M⁻¹ s⁻¹
- k2 Caspase-8 (Caspase-8): 56,500 M^−1s^−1
- k2 Caspase-6 (Caspase-6): 88,700 M^−1s^−1
- k2 Caspase-3 (Caspase-3): 6,740 M^−1s^−1
- k2 Caspase-10 (Caspase-10): 6,900 M^−1s^−1
- k2 Caspase-2 (Caspase-2): 300 M⁻¹ s⁻¹

SMILES: CC(C)C[C@H](NC(=O)OCc1ccccc1)C(=O)N[C@@H](CCC(=O)O)C(=O)N[C@H](C(=O)NN(CC(=O)O)C(=O)/C=C/C(=O)OCc1ccccc1)[C@@H](C)O (relative stereo) [Cbz-Leu-Glu-Thr-AAsp-CH═CH—COOCH2Ph, N^1-trans-(3-Benzyloxycarbonylpropenoyl)-N^2—(N-benzyloxycarbonylleucylglutamylthreonyl)-N^1-carboxymethylhydrazine]
- k2 Caspase-7 (Caspase-7): 1,570 M^−1s^−1
- k2 Caspase-8 (Caspase-8): 98,400 M^−1s^−1
- k2 Caspase-6 (Caspase-6): 47,600 M^−1s^−1
- k2 Caspase-3 (Caspase-3): 4,600 M^−1s^−1
- k2 Caspase-10 (Caspase-10): 18,900 M^−1s^−1
- k2 Caspase-2 (Caspase-2): 480 M⁻¹ s⁻¹

SMILES: CC[C@H](C)[C@H](NC(=O)OCc1ccccc1)C(=O)N[C@@H](CCC(=O)O)C(=O)N[C@H](C(=O)NN(CC(=O)O)C(=O)/C=C/C(=O)N(C)CCc1ccccc1)[C@@H](C)O (relative stereo) [N^2—(N-Benzyloxycarbonylisoleucylglutamylthreonyl)-N^1-carboxylmethyl-N^1-trans-(3-methylphenylethylcarbamoylpropenoyl)hydrazine]
- k2 Caspase-7 (Caspase-7): 1,020 M^−1s^−1
- k2 Caspase-8 (Caspase-8): 60,500 M^−1s^−1
- k2 Caspase-9 (Caspase-9): 760 M⁻¹ s⁻¹
- k2 Caspase-3 (Caspase-3): 5,480 M^−1s^−1
- k2 Caspase-10 (Caspase-10): 8,770 M^−1s^−1
- k2 Caspase-2 (Caspase-2): 38 M⁻¹ s⁻¹

SMILES: CC(C)[C@H](NC(=O)OCc1ccccc1)C(=O)NN(CC(=O)O)C(=O)/C=C/c1ccc(Cl)cc1 (stereo in doubt) [Cbz-Val-AAsp-CH═CH-4-Cl—Ph, N^2—(N-Benzyloxycarbonylvalyl)-N^1-carboxymethyl-N^1-trans-(3-(4-chlorophenyl)propenoyl)hydrazine]
- k2 Caspase-9 (Caspase-9): 19 M⁻¹ s⁻¹

SMILES: CCCCNC(=O)/C=C/C(=O)N(CC(=O)O)NC(=O)[C@@H](NC(=O)OCc1ccccc1)C(C)C (stereo in doubt) [Cbz-Val-AAsp-CH═CH—CONH-nBu, N^2—(N-Benzyloxycarbonylvalyl)-N^1-trans-(3-butylcarbamoylpropenoyl)-N^1-carboxymethylhydrazine]
- k2 Caspase-7 (Caspase-7): 55 M⁻¹ s⁻¹
- k2 Caspase-9 (Caspase-9): 32 M⁻¹ s⁻¹
- k2 Caspase-3 (Caspase-3): 184 M⁻¹ s⁻¹

SMILES: CC(C)[C@H](NC(=O)OCc1ccccc1)C(=O)NN(CC(=O)O)C(=O)/C=C/C(=O)NCc1ccccc1 (stereo in doubt) [Cbz-Val-AAsp-CH═CH—CONHCH2Ph, N^1-trans-(3-Benzylcarbamoylpropenoyl)-N^2—(N-benzyloxycarbonylvalyl)-N^1-carboxymethylhydrazine]
- k2 Caspase-7 (Caspase-7): 60 M⁻¹ s⁻¹
- k2 Caspase-9 (Caspase-9): 20 M⁻¹ s⁻¹
- k2 Caspase-3 (Caspase-3): 185 M⁻¹ s⁻¹

SMILES: CCOC(=O)/C=C/C(=O)N(CC(=O)O)NC(=O)[C@@H](NC(=O)OCc1ccccc1)C(C)C (stereo in doubt) [Cbz-Val-AAsp-CH═CH—COOEt, N^2—(N-Benzyloxycarbonylvalyl)-N^1-carboxymethyl-N^1-trans-(3-ethoxycarbonylpropenoyl)hydrazine]
- k2 Caspase-7 (Caspase-7): 2,680 M^−1s^−1
- k2 Caspase-9 (Caspase-9): 5,240 M^−1s^−1
- k2 Caspase-3 (Caspase-3): 8,000 M^−1s^−1
- k2 Caspase-10 (Caspase-10): 389 M⁻¹ s⁻¹

SMILES: CC(C)[C@H](NC(=O)OCc1ccccc1)C(=O)NN(CC(=O)O)C(=O)/C=C\Cl (stereo in doubt) [Cbz-Val-AAsp-CH═CH—Cl, N^2—(N-Benzyloxycarbonylvalyl)-N^1-carboxymethyl-N^1-cis-(3-chloropropenoyl)hydrazine]
- k2 Caspase-9 (Caspase-9): 15 M⁻¹ s⁻¹

SMILES: CC(=O)N[C@@H](CC(C)C)C(=O)N[C@@H](CCC(=O)O)C(=O)N[C@@H](Cc1cnc[nH]1)C(=O)N[C@@H](CC(=O)O)C(=O)Nc1ccc2c(C(F)(F)F)cc(=O)oc2c1 [Ac-LEHD-AFC, reference compound] (Ac-LEHD-{AFC})
- Km (Caspase-9; read-out: KM with caspase-9, substrate Ac-LEHD-AFC): 114 µM
